Data from PubChem BioAssay AID222 (DTP/NCI, 2004).
Several values for one entry are separate records, joined by “and”; a condition that tells them apart may be missing. Identical values can stand only once. Inconclusive results and toxic doses are left out. Rule for the calls: active = survival T/C of 150% or more; inactive = T/C below 125% in these data.

Test system: C57BL/6 mice, intracerebral ependymoblastoma, median survival T/C
Assay: NCI In Vivo Anticancer Drug Screen. Data for tumor model Ependymoblastoma (intracerebral) in C57BL/6 mice
Conditions: endpoint: median survival time, higher = longer survival
Method: The antitumor activity of compounds was measured in mice bearing transplantable tumors. Survival or tumor size were measured and the results are expressed as the measurement made in the treated group (T) divided by the measurement made in the vehicle treated control group (C). The tumor model used in this assay is Ependymoblastoma (intracerebral) in C57BL/6 mice

[1] = dose: 90.0 mg/kg/injection, schedule: Q01DX005 (ip), vehicle: saline with Tween-80
[2] = dose: 180.0 mg/kg/injection, schedule: Q01DX005 (ip), vehicle: saline with Tween-80
[3] = dose: 80.0 mg/kg/injection, schedule: Q01DX001 (ip), vehicle: Klucel (hydroxypropylcellulose) (HPC)

Measured: T/C

CN(N=O)C(=O)N[C@@H](C=O)[C@@H](O)[C@H](O)[C@H](O)CO
inactive: dose: 14.5 mg/kg/injection, schedule: Q## X006 (ip), vehicle: saline 109 % of control | dose: 16.0 mg/kg/injection, schedule: Q01DX001 (ip), vehicle: saline 98 % of control and 109 % of control | dose: 16.0 mg/kg/injection, schedule: Q01DX005 (ip), vehicle: other 113 % of control | dose: 16.0 mg/kg/injection, schedule: Q01DX005 (ip), vehicle: saline 117 % of control | dose: 16.0 mg/kg/injection, schedule: Q#A X002 (ip), vehicle: saline 100 % of control and 108 % of control | dose: 29.0 mg/kg/injection, schedule: Q## X006 (ip), vehicle: saline 111 % of control | dose: 32.0 mg/kg/injection, schedule: Q01DX001 (ip), vehicle: other 105 % of control | dose: 32.0 mg/kg/injection, schedule: Q01DX001 (oral), vehicle: other 116 % of control | dose: 32.0 mg/kg/injection, schedule: Q01DX005 (ip), vehicle: other 120 % of control | dose: 32.0 mg/kg/injection, schedule: Q01DX005 (ip), vehicle: saline 114 % of control | dose: 32.0 mg/kg/injection, schedule: Q01DX005 (oral), vehicle: other 95 % of control | dose: 32.0 mg/kg/injection, schedule: Q01DX005 (oral), vehicle: saline 102 % of control | dose: 32.0 mg/kg/injection, schedule: Q## X006 (ip), vehicle: other 112 % of control | dose: 32.0 mg/kg/injection, schedule: Q#A X002 (ip), vehicle: saline 104 % of control and 114 % of control | dose: 57.9 mg/kg/injection, schedule: Q## X006 (ip), vehicle: saline 114 % of control | dose: 64.0 mg/kg/injection, schedule: Q01DX001 (oral), vehicle: other 102 % of control | dose: 64.0 mg/kg/injection, schedule: Q01DX005 (ip), vehicle: other 110 % of control | dose: 64.0 mg/kg/injection, schedule: Q01DX005 (oral), vehicle: other 103 % of control | dose: 64.0 mg/kg/injection, schedule: Q01DX005 (oral), vehicle: saline 101 % of control | dose: 64.0 mg/kg/injection, schedule: Q## X006 (ip), vehicle: other 116 % of control | dose: 64.0 mg/kg/injection, schedule: Q#A X002 (ip), vehicle: saline 89 % of control and 118 % of control | dose: 128.0 mg/kg/injection, schedule: Q01DX001 (oral), vehicle: other 101 % of control | dose: 128.0 mg/kg/injection, schedule: Q01DX005 (oral), vehicle: saline 98 % of control | dose: 128.0 mg/kg/injection, schedule: Q## X006 (ip), vehicle: other 121 % of control | dose: 128.0 mg/kg/injection, schedule: Q#A X002 (ip), vehicle: saline 89 % of control and 113 % of control | dose: 231.7 mg/kg/injection, schedule: Q## X006 (ip), vehicle: saline 119 % of control | dose: 256.0 mg/kg/injection, schedule: Q01DX001 (oral), vehicle: other 113 % of control | dose: 256.0 mg/kg/injection, schedule: Q01DX005 (oral), vehicle: other 93 % of control | dose: 256.0 mg/kg/injection, schedule: Q01DX005 (oral), vehicle: saline 103 % of control | dose: 256.0 mg/kg/injection, schedule: Q#A X002 (ip), vehicle: saline 92 % of control | dose: 512.0 mg/kg/injection, schedule: Q01DX001 (oral), vehicle: other 113 % of control | dose: 512.0 mg/kg/injection, schedule: Q01DX005 (oral), vehicle: saline 113 % of control | dose: 1024.0 mg/kg/injection, schedule: Q01DX001 (oral), vehicle: other 117 % of control

N=c1ccn2c(n1)OC1C(O)C(CO)OC12 (stereo not drawn)
inactive: dose: 100.0 mg/kg/injection, schedule: Q01DX001 (ip), vehicle: saline 118 % of control | dose: 100.0 mg/kg/injection, schedule: Q01DX005 (ip), vehicle: saline 106 % of control and 112 % of control | dose: 200.0 mg/kg/injection, schedule: Q01DX001 (ip), vehicle: saline 123 % of control | dose: 200.0 mg/kg/injection, schedule: Q01DX005 (ip), vehicle: saline 120 % of control and 122 % of control | dose: 400.0 mg/kg/injection, schedule: Q01DX001 (ip), vehicle: saline 111 % of control | dose: 400.0 mg/kg/injection, schedule: Q01DX005 (ip), vehicle: saline 122 % of control | dose: 800.0 mg/kg/injection, schedule: Q01DX001 (ip), vehicle: saline 116 % of control

O=c1ccc2ccccc2o1
inactive: [1] 101 % of control | [2] 86 % of control | dose: 720.0 mg/kg/injection, schedule: Q01DX005 (ip), vehicle: saline with Tween-80 97 % of control

Nc1ccc(S(=O)(=O)c2ccc(N)cc2)cc1
inactive: dose: 12.5 mg/kg/injection, schedule: Q01DX005 (ip), vehicle: saline with Tween-80 108 % of control | dose: 25.0 mg/kg/injection, schedule: Q01DX005 (ip), vehicle: saline with Tween-80 108 % of control | dose: 45.0 mg/kg/injection, schedule: Q01DX005 (ip), vehicle: saline with Tween-80 98 % of control and 102 % of control | dose: 50.0 mg/kg/injection, schedule: Q01DX005 (ip), vehicle: saline with Tween-80 87 % of control | [1] 96 % of control and 98 % of control | dose: 100.0 mg/kg/injection, schedule: Q01DX005 (ip), vehicle: saline with Tween-80 100 % of control | [2] 101 % of control and 87 % of control | dose: 200.0 mg/kg/injection, schedule: Q01DX005 (ip), vehicle: saline with Tween-80 86 % of control

C1CN1c1nc(N2CC2)nc(N2CC2)n1
inactive: dose: 0.12 mg/kg/injection, schedule: Q01DX005 (ip), vehicle: saline 111 % of control | dose: 0.25 mg/kg/injection, schedule: Q01DX005 (ip), vehicle: saline 124 % of control

S=c1nc[nH]c2nc[nH]c12
inactive: dose: 10.0 mg/kg/injection, schedule: Q01DX001 (ip), vehicle: Klucel (hydroxypropylcellulose) (HPC) 103 % of control | dose: 10.0 mg/kg/injection, schedule: Q01DX005 (ip), vehicle: Klucel (hydroxypropylcellulose) (HPC) 89 % of control and 103 % of control | dose: 20.0 mg/kg/injection, schedule: Q01DX001 (ip), vehicle: Klucel (hydroxypropylcellulose) (HPC) 91 % of control | dose: 20.0 mg/kg/injection, schedule: Q01DX005 (ip), vehicle: Klucel (hydroxypropylcellulose) (HPC) 107 % of control and 122 % of control | dose: 40.0 mg/kg/injection, schedule: Q01DX001 (ip), vehicle: Klucel (hydroxypropylcellulose) (HPC) 109 % of control | [3] 113 % of control | dose: 160.0 mg/kg/injection, schedule: Q01DX001 (ip), vehicle: Klucel (hydroxypropylcellulose) (HPC) 102 % of control

COc1cc2c(c(OC)c1OC)-c1ccc(OC)c(=O)cc1[C@@H](NC(C)=O)CC2
inactive: dose: 0.05 mg/kg/injection, schedule: Q01DX005 (ip), vehicle: saline 104 % of control | dose: 0.1 mg/kg/injection, schedule: Q01DX005 (ip), vehicle: saline 98 % of control | dose: 0.2 mg/kg/injection, schedule: Q01DX005 (ip), vehicle: saline 108 % of control | dose: 0.4 mg/kg/injection, schedule: Q01DX005 (ip), vehicle: saline 90 % of control | dose: 0.8 mg/kg/injection, schedule: Q01DX005 (ip), vehicle: saline 103 % of control

CN(N=O)C(N)=O
inactive: dose: 2.5 mg/kg/injection, schedule: Q01DX001 (ip), vehicle: Klucel (hydroxypropylcellulose) (HPC) 120 % of control | dose: 5.0 mg/kg/injection, schedule: Q01DX001 (ip), vehicle: Klucel (hydroxypropylcellulose) (HPC) 124 % of control | [3] 97 % of control

O=c1cnn(C2OC(CO)C(O)C2O)c(=O)[nH]1 (stereo not drawn)
inactive: dose: 250.0 mg/kg/injection, schedule: Q01DX005 (ip), vehicle: saline 102 % of control | dose: 500.0 mg/kg/injection, schedule: Q01DX005 (ip), vehicle: saline 109 % of control and 111 % of control | dose: 1000.0 mg/kg/injection, schedule: Q01DX005 (ip), vehicle: saline 105 % of control and 109 % of control | dose: 2000.0 mg/kg/injection, schedule: Q01DX005 (ip), vehicle: saline 115 % of control

CCC1CC2CN(CCc3c([nH]c4ccccc34)C(C(=O)OC)(c3cc4c(cc3OC)N(C)C3C(O)(C(=O)OC)C(OC(C)=O)C5(CC)C=CCN6CCC43C65)C2)C1 (stereo not drawn)
inactive: dose: 0.05 mg/kg/injection, schedule: Q01DX005 (ip), vehicle: Klucel (hydroxypropylcellulose) (HPC) 102 % of control | dose: 0.1 mg/kg/injection, schedule: Q01DX005 (ip), vehicle: Klucel (hydroxypropylcellulose) (HPC) 108 % of control | dose: 0.2 mg/kg/injection, schedule: Q01DX005 (ip), vehicle: Klucel (hydroxypropylcellulose) (HPC) 108 % of control | dose: 0.4 mg/kg/injection, schedule: Q01DX005 (ip), vehicle: Klucel (hydroxypropylcellulose) (HPC) 108 % of control | dose: 0.8 mg/kg/injection, schedule: Q01DX005 (ip), vehicle: Klucel (hydroxypropylcellulose) (HPC) 108 % of control | dose: 1.6 mg/kg/injection, schedule: Q01DX005 (ip), vehicle: Klucel (hydroxypropylcellulose) (HPC) 102 % of control
